Measured values published in patent US20060079453A1, “Hla binding peptides and their uses” (priority 2002, published 2006).
Where two headings read alike, the source gives them in different places. No end group written: not given here.

Key:
Assay in all cases: biochemical
Type in all cases: binding
HLA-DR DRB3*0101 (DR52) = HLA-DR DRB3*0101 (DR52) (Homo sapiens, UniProt P01903+P79483)
HLA-DR DRB5*0101 (DR51) = HLA-DR DRB5*0101 (DR51) (Homo sapiens, UniProt P01903+Q30154)
HLA-DR DRB1*1302 (DR13) = HLA-DR DRB1*1302 (DR13) (Homo sapiens, UniProt P01903+P01911, A100E/A169T/K41T/L162R/M171V/P40S/Q125H/Q178H/Q39Y/Q99D/R42S/S66N/T262R/V115G/W38E/Y61H)
HLA-DR DRB1*1101 (DR11) = HLA-DR DRB1*1101 (DR11) (Homo sapiens, UniProt P01903+P01911, A100R/A169T/A87E/I96F/K41T/L162R/M171V/P40S/Q125H/Q178H/Q39Y/Q99D/R42S/S66Y/T262R/V115G/W38E)
HLA-DR DRB4*0101 (DR53) = HLA-DR DRB4*0101 (DR53) (Homo sapiens, UniProt P01903+P13762, G164S)
HLA-DR DRB1*1501 (DR15) = HLA-DR DRB1*1501 (DR15) (Homo sapiens, UniProt P01903+P01911)
HLA-DR DRB1*0301 (DR3) = HLA-DR DRB1*0301 (DR3) (Homo sapiens, UniProt P01903+P01911, A100K/A102G/A103R/A169T/F55Y/I96L/K41T/L162R/M171V/P40S/Q125H/Q178H/Q39Y/R42S/S66N/T106N/T262R/W38E/Y61H)
HLA-DR DRB1*0401 (DR4) = HLA-DR DRB1*0401 (DR4) (Homo sapiens, UniProt P01903+P01911, A100K/A169T/F76Y/I96L/K127E/L162R/M171V/N62H/P40V/Q125Y/R42H/S133A/S149N/S66Y/V115G/V209L/W38E); conditions: DRB1 *0401
HLA-DR DRB1*0701 (DR7) = HLA-DR DRB1*0701 (DR7) (Homo sapiens, UniProt P01903+P01911, A100R/A102G/A103Q/D57E/D86V/E43K/F76Y/K127E/L162R/M171V/P40G/Q125H/Q99D/R33Q/R42Y/R54Q/S133A/S66F/T210M/V115G/Y107V/Y59L/Y89S); conditions: DRB1 *0701
HLA-DR DRB1*0901 (DR9) = HLA-DR DRB1*0901 (DR9) (Homo sapiens, UniProt P01903+P01911, A100R/A103E/D57H/D86V/F55Y/F60I/F76Y/I96F/K127E/L162R/M171V/P40D/Q125H/Q99R/R33Q/R42F/S133A/S66N/T210M/V115G/W38K/Y107V/Y59G/Y89S); conditions: DRB1 *0901
HLA-DR DRB1*0802 (DR8) = HLA-DR DRB1*0802 (DR8) (Homo sapiens, UniProt P01903+P01911, A100R/A103L/A169T/F76Y/H45Y/I96F/K41T/L162R/M171V/P40S/Q125H/Q178H/Q39Y/Q99D/R218S/R42G/S66Y/V115G/W38E)

Chain of HLA-DR DRB1*0301 (DR3) (P01903 26-254 limits assumed, other chains not shown): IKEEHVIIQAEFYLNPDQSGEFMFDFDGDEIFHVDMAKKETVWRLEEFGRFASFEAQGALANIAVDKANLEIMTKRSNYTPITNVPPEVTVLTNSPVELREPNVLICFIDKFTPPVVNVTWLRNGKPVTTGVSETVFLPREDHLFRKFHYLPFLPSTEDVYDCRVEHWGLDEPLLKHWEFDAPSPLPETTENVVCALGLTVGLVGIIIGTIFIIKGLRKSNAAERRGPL
Chain of HLA-DR DRB1*1302 (DR13) (P01903 26-254 limits assumed, other chains not shown): as above
Chain of HLA-DR DRB1*1101 (DR11) (P01903 26-254 limits assumed, other chains not shown): as above

Row | Molecule | IC50 (HLA-DR DRB3*0101 (DR52); read-out: DRB3 *0101) | IC50 (HLA-DR DRB3*0101 (DR52)) | IC50 (HLA-DR DRB5*0101 (DR51); read-out: DRB5 *0101) | IC50 (HLA-DR DRB1*1302 (DR13); read-out: DRBI *1302) | IC50 (HLA-DR DRB1*1101 (DR11); read-out: DRB1 *1101) | IC50 (HLA-DR DRB1*1101 (DR11); DRB1 *1101) | IC50 (HLA-DR DRB1*0301 (DR3)) | IC50 (HLA-DR DRB4*0101 (DR53); DRB4 *0101) | other results
1 | ALQAQKEAISPPDAA | > 91.7 µM | – | – | – | – | – | – | – | –
2 | LWQLNGRLEYCLKDR | – | 29 µM | – | – | – | – | – | – | –
3 | TAWTIYRVEILRNFY | 14.4 µM | – | 0.518 µM | 0.072 µM | 5.05 µM | – | – | – | IC50 (HLA-DR DRB4*0101 (DR53); read-out: DRB4 *0101): 0.026 µM
4 | MSAMTALAALFPPEG | 7.16 µM | – | 63.2 µM | – | > 200 µM | – | – | – | –
5 | RLFDNAMLRAHRLHQ | > 270 µM | – | 0.058 µM | 0.738 µM | – | – | – | – | IC50 (HLA-DR DRB1*1501 (DR15); read-out: DRBI *1501): 0.018 µM; IC50 (HLA-DR DRB4*0101 (DR53); read-out: DRB4 *0101): 1.63 µM
6 | VAQVRGGNIVFELANS | > 21.9 µM | – | 64.4 µM | 2.8 µM | > 50 µM | – | – | – | IC50 (HLA-DR DRB4*0101 (DR53); read-out: DRB4 *0101): 0.1 µM
7 | AVGLPSIPVHPIGYY | > 11.8 µM | – | 38.5 µM | – | 33.3 µM | – | – | – | IC50 (HLA-DR DRB1*1501 (DR15); read-out: DRBI *1501): 0.518 µM; IC50 (HLA-DR DRB4*0101 (DR53); read-out: DRB4 *0101): 5.39 µM
8 | GMLPVCPLIPGSSTTSTGP | – | > 25 µM | – | – | – | 2.5 µM | > 900 µM | – | IC50 (HLA-DR DRB1*0401 (DR4)): 0.4 µM
9 | TAEYGDKWLDAKSTWYGKPT | – | > 20 µM | – | – | – | – | > 30 µM | 10 µM | IC50 (HLA-DR DRB1*0701 (DR7)): 3.13 µM; IC50 (HLA-DR DRB1*0401 (DR4)): > 0.667 µM
10 | IAKVPPGPNITAEYGDKWLD | – | > 20 µM | – | – | – | – | > 30 µM | – | IC50 (HLA-DR DRB1*0701 (DR7)): > 12.5 µM; IC50 (HLA-DR DRB1*0401 (DR4)): > 0.667 µM
11 | FPTIPLSRLFDNAML | 121 µM | – | – | 9.31 µM | 46.4 µM | – | – | – | IC50 (HLA-DR DRB1*1501 (DR15); read-out: DRBI *1501): 2.77 µM
12 | DSSLEGNYTLRVDCT | 0.576 µM | – | 16.8 µM | 0.0076 µM | > 50 µM | – | – | – | IC50 (HLA-DR DRB1*1501 (DR15); read-out: DRBI *1501): 1.2 µM
13 | LGFLQRSSNTQTQKL | > 1750 µM | – | 0.339 µM | 0.021 µM | 26.2 µM | – | – | – | –
14 | YGRILHYLKAKEDSH [YORILHYLKAKBDSH] | – | 455 µM | – | – | – | 0.812 µM | – | 0.14 µM | IC50 (HLA-DR DRB5*0101 (DR51); DRB5 *0101): 0.039 µM; IC50 (HLA-DR DRB1*1501 (DR15); DRBI *1501): 0.016 µM; IC50 (HLA-DR DRB1*1302 (DR13); DRBI *1302): 2.78 µM
15 | AFGSMAKKGEEQNVRSAGEL | – | > 33.3 µM | – | – | – | 1.82 µM | > 30 µM | – | IC50 (HLA-DR DRB1*0701 (DR7)): > 12.5 µM; IC50 (HLA-DR DRB1*0401 (DR4)): > 0.667 µM
16 | HQAISPRTLNSPAIF | > 83.3 µM | – | > 200 µM | – | 33.7 µM | – | – | – | IC50 (HLA-DR DRB1*1501 (DR15); read-out: DRBI *1501): 8.11 µM; IC50 (HLA-DR DRB4*0101 (DR53); read-out: DRB4 *0101): 0.13 µM
17 | AKSTWYGKPTGAGPKDNGGA | – | > 20 µM | – | – | – | – | > 30 µM | 10 µM | IC50 (HLA-DR DRB1*0701 (DR7)): > 12.5 µM
18 | Ac-NPDAENWNSQFEILEDAA | – | 1 µM | – | – | – | > 33.3 µM | – | – | IC50 (HLA-DR DRB5*0101 (DR51); DRB5 *0101): 50 µM; IC50 (HLA-DR DRB1*1501 (DR15); DRBI *1501): > 10 µM; IC50 (HLA-DR DRB1*1302 (DR13); DRBI *1302): > 10 µM
19 | CC[C@H](C)[C@H](NC(=O)[C@H](Cc1ccccc1)NC(=O)[C@H](C)NC(=O)[C@H](CCCNC(=N)N)NC(=O)[C@H](CCC(=O)O)NC(=O)[C@H](CC(C)C)NC(=O)[C@H](Cc1ccccc1)NC(=O)[C@H](CCSC)NC(=O)[C@H](CC(C)C)NC(=O)[C@H](CCC(N)=O)NC(=O)[C@@H](N)CC(=O)O)C(=O)N[C@@H](CC(=O)O)C(=O)N1CCC[C@H]1C(=O)N[C@@H](CC(C)C)C(=O)NCC(=O)O | – | 17.1 µM | – | – | – | – | > 19.7 µM | 0.0066 µM | –
20 | YLVCGERGFFYTKPT | – | 12.8 µM | – | – | – | > 60.6 µM | – | 40.4 µM | IC50 (HLA-DR DRB5*0101 (DR51); DRB5 *0101): > 28.4 µM; IC50 (HLA-DR DRB1*1501 (DR15); DRBI *1501): > 25.6 µM; IC50 (HLA-DR DRB1*1302 (DR13); DRBI *1302): 3.47 µM
21 | CC[C@H](C)[C@H](NC(=O)[C@H](CCC(=O)O)NC(=O)[C@H](CC(N)=O)NC(=O)CNC(=O)[C@H](CC(=O)O)NC(=O)[C@H](CCC(=O)O)NC(=O)[C@H](CC(N)=O)NC(=O)[C@@H](NC(=O)[C@@H](NC(=O)[C@H](CO)NC(=O)[C@@H](NC(=O)[C@@H](N)Cc1ccc(O)cc1)[C@@H](C)CC)[C@@H](C)CC)[C@@H](C)CC)C(=O)N[C@@H](Cc1ccccc1)C(=O)N[C@@H](CC(N)=O)C(=O)N[C@H](C(=O)O)[C@@H](C)O | – | – | – | – | – | > 18.9 µM | 0.397 µM | 3.71 µM | IC50 (HLA-DR DRB1*0701 (DR7)): 23.7 µM; IC50 (HLA-DR DRB1*0901 (DR9)): 83.1 µM; IC50 (HLA-DR DRB5*0101 (DR51); DRB5 *0101): 73 µM; IC50 (HLA-DR DRB1*1501 (DR15); DRBI *1501): 2.71 µM; IC50 (HLA-DR DRB1*1302 (DR13); DRBI *1302): 0.346 µM; IC50 (HLA-DR DRB1*0802 (DR8)): > 123 µM; IC50 (HLA-DR DRB1*0401 (DR4)): 0.624 µM
22 | GGVLVNEILNHMKRA | 8.12 µM | – | 0.0087 µM | 0.049 µM | 0.255 µM | – | – | – | IC50 (HLA-DR DRB1*1501 (DR15); read-out: DRBI *1501): 0.576 µM; IC50 (HLA-DR DRB4*0101 (DR53); read-out: DRB4 *0101): 0.0058 µM
23 | SAAPLRTITADTFRK [SAAPLRT1TADTFRK] | – | 2.11 µM | – | – | – | 3.88 µM | – | 0.017 µM | IC50 (HLA-DR DRB5*0101 (DR51); DRB5 *0101): 0.045 µM; IC50 (HLA-DR DRB1*1501 (DR15); DRBI *1501): 0.858 µM; IC50 (HLA-DR DRB1*1302 (DR13); DRBI *1302): 0.809 µM
